These results are taken from PubChem BioAssay (NCI).

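In this assay, cells in 96-well plates receive the compound at five concentrations for 48 hours. Endpoints are linearly interpolated between the surrounding concentrations. Abbreviation: GI50, concentration required for 50% inhibition of growth. TGI denotes the concentration required for complete inhibition of growth.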

Common to all, as to assay: NCI anticancer screen, dose series, 48 h
For experiment [1], the system named is BT-549 breast.
In experiment [2] the test system is CCRF-CEM leukemia.
Experiment [3] has as its system HL-60(TB) leukemia.
Experiment [4] relates to HS 578T breast.
The test system of experiment [5] is MDA-MB-435.
For experiment [6], the system named is NCI-H23 lung.
The test system of experiment [7] is NCI-H460 lung.
Experiment [8] has as its system NCI/ADR-RES ovarian.
The subject of experiment [9] is SR leukemia.
Experiment [10] deals with UACC-257 melanoma.

Turning to `Nc1n[n+]([O-])c2cc([N+](=O)[O-])ccc2[n+]1[O-]`, the TGI came out at 32 µM in experiment [1]; 9.74 µM in [2]; 7.47 µM in experiment [3]; 44 µM in experiment [4]; 3.26 µM in experiment [5]; 35.7 µM in experiment [6]. The TGI in experiment [7] is 16.1 µM; in [8], 32.8 µM; in experiment [9], 18.4 µM; in [10] it was 27.1 µM.

For `N#CCc1c(F)c(F)c(F)c(F)c1F`, the TGI in experiment [1], in experiment [2], in [3], in experiment [4], in experiment [5] and in [6] was over 100 µM in each case. For the same compound, the TGI in [8], in [9] and in [10] was over 100 µM in each case.

Consider `Nc1nc(=O)n(C2CC(O)C(CO)O2)cc1F` (configuration not stated), for which the TGI is over 100 µM in experiment [1]; over 100 µM in experiment [2]; over 100 µM in experiment [3]; over 100 µM in [4]; over 100 µM in experiment [5]; over 28.5 µM in experiment [6]. In addition, the TGI in experiment [7], in experiment [8], in experiment [9] and in experiment [10] was over 100 µM throughout. Besides, the GI50 in experiment [2] is 0.00276 µM; in experiment [3] it was over 80.8 µM; in experiment [4] it was 55.2 µM; in [5], over 100 µM; in experiment [6], under 0.0332 µM; in experiment [7], 0.00231 µM. Also, the GI50 is 0.107 µM in experiment [8], over 100 µM in [9] and over 100 µM in experiment [10].

Consider `CC1(C)OB(c2ccc(N(CCOS(C)(=O)=O)CCOS(C)(=O)=O)cc2)OC1(C)C`, for which the GI50 in [1] is 17.6 µM; in experiment [2] it was 1.98 µM; in experiment [3] it was 2.85 µM; in experiment [4], 32.3 µM; in experiment [5], 23 µM; in experiment [6], 6.88 µM. The GI50 is 12.6 µM in experiment [7], 15.8 µM in experiment [8], 0.0234 µM in [9] and 21.6 µM in [10]. In addition, the TGI in experiment [1] was 41 µM; in experiment [2], over 39.6 µM; in experiment [3], 39.3 µM; in experiment [4] it was over 87 µM; in experiment [5] it was 53.4 µM; in [6] it was 30.4 µM. The TGI in experiment [7] was over 100 µM; in experiment [8] it was 65.2 µM; in experiment [9] it was 1.02 µM; in experiment [10], over 60.5 µM.

Regarding `N#Cc1ncc(C(Cl)Cl)nc1Cl`, the TGI in experiment [1] is 4.8 µM; in experiment [2], over 6.15 µM; in experiment [3], over 3.75 µM; in experiment [4], over 10 µM; in experiment [5], 3.9 µM; in experiment [6], 5.94 µM. Also, the TGI was 3.74 µM in [7], 5.38 µM in experiment [8], over 5.84 µM in experiment [9] and 2.99 µM in experiment [10].

As for `Cc1nnc(C[C@@H]2C=C(c3ccc(Cl)cc3)c3ccccc3-n3c(C)nnc32)o1`, the GI50 in experiment [1] was 1.48 µM; in [2], 8.6 µM; in experiment [3] it was 0.25 µM; in experiment [4] it was 0.578 µM; in [5], 0.858 µM; in [6], 1.51 µM. Further, the GI50 is 11.7 µM in [7], 1.86 µM in experiment [8], 0.27 µM in [9] and 2.43 µM in [10]. Also, the TGI was 29.2 µM in [1]; over 94.1 µM in experiment [2]; 35.5 µM in experiment [3]; 46.1 µM in experiment [4]; 55.9 µM in [5]; 96.9 µM in experiment [6]. In addition, the TGI was over 100 µM in experiment [7], 43.7 µM in experiment [8], over 70.6 µM in [9] and over 100 µM in [10].

In the case of `COC(=O)c1cc(-c2ccc3ccccc3c2)[nH]c(=O)c1C#N`, the TGI in experiment [1] was over 100 µM; in experiment [3] it was 38.7 µM; in experiment [4], over 100 µM; in experiment [5], over 100 µM; in experiment [6] it was over 100 µM; in experiment [7], over 100 µM. Besides, the TGI in [8], in experiment [9] and in experiment [10] was over 100 µM each time.

On to `Cc1cc(S(=O)(=O)/N=C(\N)Nc2cccc(O)c2)c(SCc2ccccc2)cc1Cl`, for which the GI50 is 19 µM in experiment [1]; 12.9 µM in experiment [3]; 24.4 µM in experiment [4]; 14.2 µM in experiment [5]; 26.5 µM in experiment [8]; 16.2 µM in experiment [9]. In addition, in experiment [10], the GI50 was 17.7 µM. The TGI in experiment [1] was 39.7 µM; in experiment [3], 62.9 µM; in experiment [4] it was 82.9 µM; in [5] it was 32.5 µM; in experiment [8] it was 70.2 µM; in experiment [9] it was over 100 µM. The compound further displayed a TGI in [10] of 35.1 µM.

`CCN(C(=O)N1CCN(c2cc3c(cc2F)c(=O)c(C(=O)O)cn3C2CC2)CC1)c1nc(-c2ccccc2)cs1`: the GI50 was 2.27 µM in experiment [1]; 1.59 µM in experiment [3]; 3.16 µM in [4]; 2.87 µM in experiment [5]; 2.79 µM in experiment [6]; 3.11 µM in experiment [7]. The GI50 was 2.88 µM in experiment [8], 1.54 µM in experiment [9] and 2.83 µM in experiment [10]. Besides, the TGI was 7.91 µM in experiment [1]; 4.35 µM in experiment [3]; 25.9 µM in experiment [4]; 11.6 µM in experiment [5]; 29.5 µM in experiment [6]; over 100 µM in experiment [7]. Besides, the TGI in [8] was over 100 µM; in experiment [9], 9.92 µM; in [10], 7.61 µM.

Turning to `COc1ccc2[nH]c(Cl)c(/C=C3/C(=O)Nc4ccccc43)c2c1`, the GI50 was 0.185 µM in experiment [1]; 0.216 µM in [2]; 0.449 µM in experiment [3]; 0.837 µM in experiment [4]; 0.251 µM in [5]; 0.219 µM in experiment [6]. In addition, the GI50 was 1.25 µM in experiment [7], 0.715 µM in experiment [8] and 0.984 µM in [10]. The TGI is 0.523 µM in [1]; 0.737 µM in [2]; 2.84 µM in experiment [3]; 4.31 µM in experiment [4]; 0.708 µM in [5]; 0.688 µM in [6]. Further, the results for the TGI in [7], in experiment [8] and in experiment [10] were over 34.8 µM, 3.38 µM and 11.2 µM, respectively.
